Results from patent US20200255844A1, “MULTIPLEXED RECEPTOR-LIGAND INTERACTION SCREENS” (THE REGENTS OF THE UNIVERSITY OF CALIFORNIA, priority 2017, published 2020).

Legend:
Type in all cases: cell-based, mouse
MOR23-1 = test: High-throughput multiplexed odorant screening (Smell-seq), barcode RNA-seq readout; settings: OR MOR23-1; pair called as hit, FDR=1%
Description: (§1) We subsequently screened 182 odorants at three concentrations in triplicate against the OR cell library, the equivalent of ˜85,000 individual luciferase assays including controls (FIG. 10A, Table 2). Each 96-well plate in the assay contained positive control odorants and solvent DMSO wells for normalization (FIG. 16). We used the EdgeR software package to determine differentially responsive ORs based on a negative binomial model of barcode counts. We found 114 OR-odorant interactions (out of 7,200 possible), 81 of which are novel, and 24 interactions with 15 orphan receptors (FIG. 10C, FIG. 17 and Supplementary Table 4) (FDR=1%; Benjamini-Hochberg correction). Overall 28 of 39 receptors were activated by at least one odorant, and 68 of 182 odorants activated at least one OR (Table 4). We chose 37 interactions of at least 1.2 fold induction to test individually with a previously developed transient OR assay that has several important differences (FIG. 18). Of the 28 interactions called as hits at an FDR of 1%, 21 of them replicated in this orthogonal system (FIG. 17). […] Conversely, we also detect 14 interactions that this previous study tested, but called negative.

MOR13-1 = test: High-throughput multiplexed odorant screening (Smell-seq), 96-well, barcode RNA-seq readout; settings: OR MOR13-1; pair called as hit, FDR=1%
Description: We find that chemicals with similar features activate similar sets of ORs, including those receptors we deorphanize in this study. For example, the previously orphan MOR13-1 is activated by four chemicals with polar groups attached, in three cases, to stiff non-rotatable scaffolds. Another example is, MOR19-1, which has clear affinity for the salicylate functional group. To better understand how chemical similarity relates to receptor activation without relying on incomplete and sometimes arbitrary chemical descriptors, we used a previously validated computational autoencoder to represent each chemical in a ˜292 dimensional latent space, allowing nearly lossless compression of chemical structure (Data not shown). We find chemicals that activate the same OR tend to cluster distinctly (FIG. 10D, FIG. 20). […] Many, but not all of the receptors. […] Understanding the space of chemicals that activates each OR establishes the groundwork for prediction of novel odorant-OR interactions.
(§2) 10. High-Throughput Odorant Screening
(§3) The OR library cell line was thawed from a liquid nitrogen frozen stock into a T-225 flask (Corning) three days before seeding into a 96-well plate for screening. The library was seeded at 6,666 cells per well in 100 ul of DMEM. 24 hours later a working concentration of 1 ug/ml of doxycycline in DMEM was added to the wells. 24 hours after induction, the media was removed from each plate and replaced with 25 ul of odorant diluted in OptiMEM. Each odor was added at three different concentrations (10 uM, 100 uM, 1 mM) in triplicate with the same amount of final DMSO (1%). Each plate contained two control odorants at a three concentration (10 uM, 100 uM, 1 mM) in triplicate and three wells containing 1% DMSO dissolved in media. The library was incubated with odorants for three hours in a cell culture incubator with the lids removed.
After odor incubation, media was pipetted out of the plates and cells were lysed by adding 25 uL of ice-cold Cells-to-cDNA II Lysis Buffer (Thermo Fisher) and pipetting up and down to homogenize and lyse cells. The lysate was then heated to 75° C. for 15 minutes and flash frozen with liquid nitrogen and kept at −80 C until further processing. Then 0.5 uL DNase I (New England Biolabs) was added to lysate, and incubated at 37° C. for 15 minutes. […]
For each batch, qPCR was performed on a few wells (OL005F and OL013) with SYBR FAST qPCR Mastermix to determine the number of cycles necessary for PCR based library preparation. […] Library concentrations were quantified using a Tape Station 2200 and a Qubit (Thermo Fisher). The libraries were sequenced with two index reads and a single end 75-bp read on a NextSeq 500 in high-output mode (Illumina). […]

MOR170-1 = test: as above; settings: OR MOR170-1; pair called as hit, FDR=1%
Procedure: as §2, §3
(§4) After odor incubation, media was pipetted out of the plates and cells were lysed by adding 25 uL of ice-cold Cells-to-cDNA II Lysis Buffer (Thermo Fisher) and pipetting up and down to homogenize and lyse cells. The lysate was then heated to 75° C. for 15 minutes and flash frozen with liquid nitrogen and kept at −80 C until further processing. Then 0.5 uL DNase I (New England Biolabs) was added to lysate, and incubated at 37° C. for 15 minutes. To anneal the RT primer, 5 ul of lysate from each well was combined with 2.5 ul of 10 mM dNTPs (New England Biosciences), 1 ul of 2 uM gene specific RT primer (OL003), and 1.5 ul of H2O. The reaction was heated to 65° C. for 5 min and cooled back down to 0° C. After annealing, 1 ul of M-MuLV Reverse Transcriptase (Enzymatics), 1 ul of buffer, and 0.25 ul of RNase Inhibitor (Enzymatics) were added to each reaction. Reactions were incubated at 42° C. for 60 min and the RT enzyme was heat inactivated at 85° C. for 10 min.
(§5) For each batch, qPCR was performed on a few wells (OL005F and OL013) with SYBR FAST qPCR Mastermix to determine the number of cycles necessary for PCR based library preparation. The reaction and cycling conditions are optimized as follows: 95° C. for 3 minutes, 40 cycles of 95° C. for 3 seconds and 60° C. for 20 seconds. After qPCR, 5 ul of each RT reaction was combined with 0.4 ul of 10 uM primers containing sequencing adaptors (OL005F and OL013), 10 ul of NEB-Next Q5 Mastermix (New England Biosciences) and 4.2 ul H2O, the PCR was carried out according to the manufacturer's protocol. The forward primer contains the P7 adaptor sequence and an index identifying the well in the assay and the reverse primer contains the P5 adaptor sequence and an index identifying the plate in the assay. PCR products were pooled together by plate and purified with the DNA Clean and Concentrator Kit. Library concentrations were quantified using a Tape Station 2200 and a Qubit (Thermo Fisher). The libraries were sequenced with two index reads and a single end 75-bp read on a NextSeq 500 in high-output mode (Illumina).
(§6) 11. Analysis of Next-Generation Sequencing Data
(§7) Samples were identified via indexing by their PCR indexes adapters unique for each well (5′ end) and unique for each plate (3′ end). The well barcodes followed the 7 bp indexing scheme in (Illumina Sequencing Library Preparation for Highly Multiplexed Target Capture and Sequencing Matthias Meyer, Martin Kircher, Cold Spring Harb Protoc; 2010; doi:10.1101/pdb.prot5448). The plate indexing scheme followed the Illumina indexing scheme. Sequencing data was demultiplexed and 15 bp barcode sequences were counted with only exact matches by custom python and bash scripts.
(§8) 12. Statistical Methods for Calling Hits
(§9) Count data was then analyzed using the differential expression package EdgeR. To filter out ORs with low representation, we set a cutoff that an OR had to contain at least 0.5% of the reads from more than 399 of the 1954 test samples. This filtered out 3 of 42 ORs which were underrepresented in the cell library (MOR172-1, MOR176-1 and MOR181-1). […]

MOR139-1 = test: High-throughput multiplexed odorant screening (Smell-seq), barcode RNA-seq readout; settings: OR MOR139-1; pair called as hit, FDR=1%
Description: as §1

MOR189-1 = test: as above; settings: OR MOR189-1; pair called as hit, FDR=1%
Description: as §1

MOR5-1 = test: High-throughput multiplexed odorant screening (Smell-seq), 96-well, barcode RNA-seq readout; settings: OR MOR5-1; pair called as hit, FDR=1%
Procedure: as §2, §3, §4, §5, §6, §7, §8, §9

MOR25-1 = test: High-throughput multiplexed odorant screening (Smell-seq), barcode RNA-seq readout; settings: OR MOR25-1; pair called as hit, FDR=1%
Description: as §1

MOR30-1 = test: as above; settings: OR MOR30-1; pair called as hit, FDR=1%
Description: as §1

Olfr62 = test: as above; settings: OR Olfr62; pair called as hit, FDR=1%
Description: as §1

MOR136-1 = test: as above; settings: OR MOR136-1; pair called as hit, FDR=1%
Description: as §1

MOR131-1 = test: as above; settings: OR MOR131-1; pair called as hit, FDR=1%
Description: as §1

CCCCCCC=O [Heptanal]
Minimum Activating Concentration (MOR23-1): 1000 µM

O=C(O)C1CCC1 [Cyclobutanecarboxylic acid]
Minimum Activating Concentration (MOR13-1): 1000 µM

C=CCc1ccc(OC)c(OC)c1 [Eugenol methyl ether]
Minimum Activating Concentration (MOR170-1): 10 µM | Minimum Activating Concentration (MOR139-1): 1000 µM | Minimum Activating Concentration (MOR189-1): 1000 µM

CCCCCCCCC(=O)O [Nonanoic Acid]
Minimum Activating Concentration (MOR5-1): 100 µM | Minimum Activating Concentration (MOR23-1): 1000 µM | Minimum Activating Concentration (MOR25-1): 1000 µM | Minimum Activating Concentration (MOR30-1): 100 µM

C=CCc1ccc(O)c(OC)c1 [Eugenol]
Minimum Activating Concentration (MOR139-1): 1000 µM

CCCCCCCCCC(=O)O [Decanoic-Acid]
Minimum Activating Concentration (MOR5-1): 1000 µM | Minimum Activating Concentration (MOR25-1): 100 µM | Minimum Activating Concentration (MOR30-1): 10 µM

COc1cc(C=O)ccc1O [Vanillin]
Minimum Activating Concentration (MOR170-1): 1000 µM

c1ccc2ncccc2c1
Minimum Activating Concentration (MOR170-1): 100 µM | Minimum Activating Concentration (MOR139-1): 100 µM | Minimum Activating Concentration (MOR189-1): 1000 µM | Minimum Activating Concentration (Olfr62): 1000 µM

C=C(C)[C@@H]1CC[C@@H](C)C(=O)C1 [(+)-Dihydrocarvone]
Minimum Activating Concentration (MOR139-1): 1000 µM

CCCCCC1=C(C)CCC1=O [Dihydrojasmone]
Minimum Activating Concentration (MOR139-1): 1000 µM

CC12CCC(CC1=O)C2(C)C (stereo not drawn) [(+)-Camphor]
Minimum Activating Concentration (MOR136-1): 100 µM

O=Cc1ccc2c(c1)OCO2 [Piperonal]
Minimum Activating Concentration (MOR170-1): 1000 µM | Minimum Activating Concentration (Olfr62): 1000 µM

CC(=O)OCc1ccccc1 [Benzyl acetate]
Minimum Activating Concentration (MOR170-1): 1000 µM

CC(=O)OCCc1ccccc1 [2-Phenethyl acetate]
Minimum Activating Concentration (MOR170-1): 1000 µM

CCc1ccccc1O [2-Ethylphenol]
Minimum Activating Concentration (MOR136-1): 100 µM

CCC(=O)C(=O)CC [3,4-Hexanedione]
Minimum Activating Concentration (MOR131-1): 1000 µM

C=C(C)C1CC=C(C)C(=O)C1 (single isomer, unassigned; (-)) [(−)-Carvone]
Minimum Activating Concentration (MOR25-1): 1000 µM

CCCCCCCCC=O [Nonanal]
Minimum Activating Concentration (MOR5-1): 1000 µM | Minimum Activating Concentration (MOR23-1): 1000 µM | Minimum Activating Concentration (MOR30-1): 1000 µM

C=C(C)C1CCC(C)C(O)C1 (single isomer, unassigned; (-)) [(−)-Dihydrocarveol]
Minimum Activating Concentration (MOR136-1): 1000 µM | Minimum Activating Concentration (MOR139-1): 1000 µM

CCCCCCCCCC=O [Decanal]
Minimum Activating Concentration (MOR25-1): 1000 µM | Minimum Activating Concentration (MOR30-1): 100 µM

O=C(c1ccccc1)c1ccccc1 [Benzophenone]
Minimum Activating Concentration (Olfr62): 1000 µM

CCCCC(Br)C(=O)O (stereo not drawn) [2-Bromohexanoic acid]
Minimum Activating Concentration (MOR170-1): 1000 µM | Minimum Activating Concentration (MOR5-1): 1000 µM

O=C1Cc2ccccc2O1 [2-coumaranone]
Minimum Activating Concentration (Olfr62): 1000 µM

CC(C)=C1CC[C@@H](C)CC1=O [(+)-Pulegone]
Minimum Activating Concentration (MOR139-1): 1000 µM

CCCCCCC(Br)C(=O)O (stereo not drawn) [2-Bromooctanoic acid]
Minimum Activating Concentration (MOR5-1): 1000 µM | Minimum Activating Concentration (MOR23-1): 1000 µM

CNc1ccccc1C(=O)OC [Dimethyl anthranilate]
Minimum Activating Concentration (MOR170-1): 10 µM | Minimum Activating Concentration (MOR139-1): 1000 µM

CC(=O)/C=C/C1=C(C)CCCC1(C)C [beta-ionone]
Minimum Activating Concentration (MOR139-1): 1000 µM | Minimum Activating Concentration (MOR189-1): 1000 µM

CCC(C)c1nccnc1OC (stereo not drawn) [2-sec-Butyl-3-methoxypyrazine]
Minimum Activating Concentration (MOR139-1): 1000 µM

CCc1ccc(O)cc1 [4-Ethylphenol]
Minimum Activating Concentration (MOR170-1): 1000 µM

COc1ccc(C=O)cc1 [Anisaldehyde]
Minimum Activating Concentration (MOR170-1): 1000 µM

C/C=C(\C)C=O [trans-2-Methyl-2-butenal (2MB)]
Minimum Activating Concentration (MOR13-1): 1000 µM

C/C=C/C(=O)C1=C(C)CCCC1(C)C [beta-Damascone]
Minimum Activating Concentration (MOR189-1): 1000 µM

CC/C=C\CCCCC=O [cis-6-Nonenal]
Minimum Activating Concentration (MOR5-1): 1000 µM

O=C(O)CCCCCBr [6-Bromohexanoic acid]
Minimum Activating Concentration (MOR5-1): 1000 µM | Minimum Activating Concentration (MOR23-1): 100 µM

CCCCC/C=C\CCC=O [cis-4-Decenal]
Minimum Activating Concentration (MOR5-1): 1000 µM

C=C(C)C1CC=C(C=O)CC1 (single isomer, unassigned; (-)) [(−)-Perillaaldehyde]
Minimum Activating Concentration (MOR131-1): 1000 µM

OCC=Cc1ccccc1 [Cinnamyl alcohol]
Minimum Activating Concentration (MOR170-1): 1000 µM

CCCC=O [Butanal]
Minimum Activating Concentration (MOR139-1): 1000 µM

O=C1CCOc2ccccc21 [4-Chromanone]
Minimum Activating Concentration (MOR170-1): 100 µM | Minimum Activating Concentration (MOR139-1): 1000 µM | Minimum Activating Concentration (MOR189-1): 1000 µM

CCCCCCO [1-hexanol]
Minimum Activating Concentration (MOR131-1): 1000 µM

CCCCCCCC=O [Octanal]
Minimum Activating Concentration (MOR5-1): 1000 µM | Minimum Activating Concentration (MOR23-1): 100 µM

C=C(C)C1CCC(C)C(O)C1 (single isomer, unassigned; (+)) [(+)-Dihydrocarveol]
Minimum Activating Concentration (MOR136-1): 1000 µM

CC(C)=CCC/C(C)=C\COC(=O)C(C)C [Neryl isobutyrate]
Minimum Activating Concentration (MOR139-1): 1000 µM
